The source of these data is patent publication US12187742B2 (XRAD Therapeutics, Inc., priority 2018, dated 2025).

Structures can show the parent of a compound that is named as a salt. Bounds are passed on as bounds.

The target in assay [1] is DNA-PK (Homo sapiens (Human), UniProt P78527). As to the kind of experiment: DNA-PK Enzyme-Linked Immunosorbent Assay (phosphorylation of GST-p53 (1-101) peptide). Type of assay: biochemical. Conditions: ELISA. The gist of the method:
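ELISA with plate-bound GST-p53 (1-101) phosphorylated by DNA-PK (0.1 μg/mL final) with 20 μM ATP for 1 h at 25 °C. Compounds tested over 10 3-fold doses from 100 nM top final. Phospho-p53 Ser15 detected by antibody, HRP and TMB, absorbance at 450 nm.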
On the technique in general: In an ELISA, binding on a coated surface is turned into a signal by an enzyme label.

The target in assay [2] is ATM (Homo sapiens (Human), UniProt Q13315). As to the kind of experiment: ATM in Cell Western Assay (pKAP1 in etoposide-treated MCF-7 cells). The format is cell-based. An outline of the steps:
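Cells received compounds in a 10-dose, 3-fold series from a 1 μM final top concentration, then 100 μM etoposide, for 1 hr at 37° C. They were then fixed with paraformaldehyde and permeabilized with 0.1% Triton X-100. After immunostaining, plates were scanned on an infrared imager.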

The mark [3] stands for this setting: pKAP1 in etoposide-treated MCF-7 cells.
The mark [4] stands for this setting: MCF-7 cells, etoposide 100 μM, 1 hr, pKAP1 readout.

ATM, sequence (Q13315 whole entry): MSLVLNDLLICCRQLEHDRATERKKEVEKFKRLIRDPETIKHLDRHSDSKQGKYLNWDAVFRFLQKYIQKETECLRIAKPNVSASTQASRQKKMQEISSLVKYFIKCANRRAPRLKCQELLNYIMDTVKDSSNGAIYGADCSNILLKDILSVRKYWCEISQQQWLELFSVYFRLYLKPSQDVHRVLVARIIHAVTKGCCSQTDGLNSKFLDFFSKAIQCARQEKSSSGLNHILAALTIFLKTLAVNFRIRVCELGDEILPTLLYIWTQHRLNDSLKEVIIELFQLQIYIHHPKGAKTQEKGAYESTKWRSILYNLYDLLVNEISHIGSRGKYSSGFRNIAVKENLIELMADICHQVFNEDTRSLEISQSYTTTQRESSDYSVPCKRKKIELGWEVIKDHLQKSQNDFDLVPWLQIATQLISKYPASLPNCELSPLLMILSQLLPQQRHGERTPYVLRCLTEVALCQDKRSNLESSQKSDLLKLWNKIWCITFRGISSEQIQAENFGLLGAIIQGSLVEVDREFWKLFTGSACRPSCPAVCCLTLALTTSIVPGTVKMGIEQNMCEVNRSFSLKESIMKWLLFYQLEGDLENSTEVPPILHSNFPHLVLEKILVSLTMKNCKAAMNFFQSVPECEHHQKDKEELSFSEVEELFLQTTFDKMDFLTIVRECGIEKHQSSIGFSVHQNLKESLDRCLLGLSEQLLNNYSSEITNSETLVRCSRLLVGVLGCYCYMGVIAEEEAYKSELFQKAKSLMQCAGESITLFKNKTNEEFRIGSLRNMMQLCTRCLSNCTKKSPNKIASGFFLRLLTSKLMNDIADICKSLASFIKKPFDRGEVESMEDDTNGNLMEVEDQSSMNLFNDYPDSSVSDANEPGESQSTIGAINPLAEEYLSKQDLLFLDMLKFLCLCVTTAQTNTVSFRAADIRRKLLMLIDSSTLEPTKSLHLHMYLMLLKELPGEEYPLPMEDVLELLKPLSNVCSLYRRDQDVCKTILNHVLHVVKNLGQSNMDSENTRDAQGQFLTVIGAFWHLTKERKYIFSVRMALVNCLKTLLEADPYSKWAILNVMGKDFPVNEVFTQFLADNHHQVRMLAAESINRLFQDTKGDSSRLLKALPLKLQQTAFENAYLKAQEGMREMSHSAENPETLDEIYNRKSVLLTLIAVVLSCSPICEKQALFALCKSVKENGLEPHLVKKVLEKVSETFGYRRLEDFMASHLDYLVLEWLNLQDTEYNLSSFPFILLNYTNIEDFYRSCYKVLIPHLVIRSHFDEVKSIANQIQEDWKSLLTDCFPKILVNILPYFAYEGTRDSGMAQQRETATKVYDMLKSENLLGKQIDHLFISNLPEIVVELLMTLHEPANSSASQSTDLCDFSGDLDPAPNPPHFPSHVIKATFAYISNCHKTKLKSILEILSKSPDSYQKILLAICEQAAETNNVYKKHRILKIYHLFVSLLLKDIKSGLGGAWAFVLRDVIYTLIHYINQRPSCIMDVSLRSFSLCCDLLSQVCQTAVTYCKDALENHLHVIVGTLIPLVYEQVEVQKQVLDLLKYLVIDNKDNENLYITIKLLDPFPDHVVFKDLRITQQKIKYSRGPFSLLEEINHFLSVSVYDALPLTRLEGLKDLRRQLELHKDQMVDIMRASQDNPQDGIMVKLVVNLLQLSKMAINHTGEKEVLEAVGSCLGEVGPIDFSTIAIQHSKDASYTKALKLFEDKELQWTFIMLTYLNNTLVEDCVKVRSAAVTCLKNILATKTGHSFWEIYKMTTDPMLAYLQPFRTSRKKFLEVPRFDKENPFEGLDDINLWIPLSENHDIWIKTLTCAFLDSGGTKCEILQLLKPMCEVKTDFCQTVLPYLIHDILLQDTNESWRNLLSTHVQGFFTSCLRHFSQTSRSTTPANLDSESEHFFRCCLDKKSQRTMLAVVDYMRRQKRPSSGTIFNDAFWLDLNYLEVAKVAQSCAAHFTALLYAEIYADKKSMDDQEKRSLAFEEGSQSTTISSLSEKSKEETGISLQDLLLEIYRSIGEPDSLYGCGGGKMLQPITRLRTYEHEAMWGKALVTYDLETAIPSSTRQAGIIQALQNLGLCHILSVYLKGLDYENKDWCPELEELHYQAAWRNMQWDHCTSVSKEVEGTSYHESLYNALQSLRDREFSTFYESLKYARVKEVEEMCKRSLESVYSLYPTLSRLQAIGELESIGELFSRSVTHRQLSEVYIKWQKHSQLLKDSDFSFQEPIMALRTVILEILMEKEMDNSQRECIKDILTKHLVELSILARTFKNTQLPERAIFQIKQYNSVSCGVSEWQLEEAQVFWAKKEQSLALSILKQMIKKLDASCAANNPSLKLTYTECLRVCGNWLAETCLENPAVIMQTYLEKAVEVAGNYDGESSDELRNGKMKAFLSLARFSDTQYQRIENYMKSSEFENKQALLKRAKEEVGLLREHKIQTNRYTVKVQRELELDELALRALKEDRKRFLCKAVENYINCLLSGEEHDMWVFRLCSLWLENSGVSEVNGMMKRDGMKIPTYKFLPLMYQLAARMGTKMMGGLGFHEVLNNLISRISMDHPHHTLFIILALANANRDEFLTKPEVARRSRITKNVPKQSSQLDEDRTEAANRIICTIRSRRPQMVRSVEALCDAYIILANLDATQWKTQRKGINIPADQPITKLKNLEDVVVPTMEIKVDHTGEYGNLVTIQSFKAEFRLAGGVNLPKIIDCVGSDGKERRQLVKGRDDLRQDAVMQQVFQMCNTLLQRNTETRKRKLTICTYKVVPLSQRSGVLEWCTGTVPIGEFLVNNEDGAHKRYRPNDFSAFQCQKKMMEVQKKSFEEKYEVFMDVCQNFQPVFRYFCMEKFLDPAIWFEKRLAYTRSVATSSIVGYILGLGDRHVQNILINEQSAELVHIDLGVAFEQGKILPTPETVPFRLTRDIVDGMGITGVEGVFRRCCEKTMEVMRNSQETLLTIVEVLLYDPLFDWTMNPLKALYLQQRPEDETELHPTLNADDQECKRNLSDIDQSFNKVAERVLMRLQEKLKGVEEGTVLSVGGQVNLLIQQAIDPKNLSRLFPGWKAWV

What is called IC50 is the point on the concentration scale where inhibition reaches its midpoint. A low value points to greater potency in that assay. For the molecule `CC(C)NCCOc1ncc(-c2cc3c4c(cnc3cc2F)N(C)C(=O)C42CN(c3ccc(C(F)(F)F)cc3)C2)cc1NS(C)(=O)=O` [Example 536, N-(5-(7′-Fluoro-3′-methyl-2′-oxo-1-(4-(trifluoromethyl)phenyl)-2′,3′-dihydrospiro[azetidine-3,1′-pyrrolo[2,3-c]quinolin]-8′-yl)-2-(2-(isopropylamino)ethoxy)pyridin-3-yl)methanesulfonamide hydrochloride], the IC50 in assay [1] (20 μM ATP) and in assay [2] (setting [3]) was 1 to 100 nM each time.
On to `CC(C)NCCOc1ncc(-c2cc3c(cc2F)ncc2c3[C@]3(C[C@H](c4cccc(=O)[nH]4)C3)C(=O)N2C)cc1NS(C)(=O)=O` [Example 440, cis-N-(5-(7′-Fluoro-3′-methyl-2′-oxo-3-(6-oxo-1,6-dihydropyridin-2-yl)-2′,3′-dihydrospiro[cyclobutane-1,1′-pyrrolo[2,3-c]quinolin]-8′-yl)-2-(2-(isopropylamino)ethoxy)pyridin-3-yl)methanesulfonamide], for which the results for the IC50 in assay [1] (20 μM ATP) and in assay [2] (setting [3]) were 1 to 100 nM and over 100 nM, respectively.
Take `Cc1ccc(S(=O)(=O)n2c(CCN3CCCCC3)cc3ncc(-c4ccc5ncc6c(c5c4)C4(CCC4)C(=O)N6C)cc32)cn1` [Example 216, 3′-Metbyl-8′-(1-((6-methylpyridin-3-yl)sulfonyl)-2-(2-(piperidin-1-yl)ethyl)-1H-pyrrolo[3,2-b]pyridin-6-yl)spiro[cyclobutane-1,1′-pyrrolo[2,3-c]quinolin]-2′(3′-H)-one]: the IC50 in assay [1] (ATP 20 μM) and in assay [2] (setting [4]) was 1 to 100 nM each time.
On to `CN(CCC#N)CCCOc1ncc(-c2ccc3ncc4c(c3c2)C2(CCC2)C(=O)N4C)cc1NS(C)(=O)=O` [Example 293, N-(2-(3-((2-Cyanoethyl)(methyl)amino)propoxy)-5-(3′-methyl-2′-oxo-2′3′-dihydrospiro[cyclobutane-1,1′-pyrrolo[2,3-c]quinolin]-8′-yl)pyridin-3-yl)methanesulfonamide], for which the half-inhibitory concentration (IC50) in assay [1] (ATP 20 μM) and in assay [2] (setting [4]) was over 100 nM each time.
Take `COC1CCN(S(=O)(=O)Nc2cc(-c3ccc4ncc5c(c4c3)C3(CCC3)C(=O)N5C)cnc2OCCCN(C)C)CC1` [Example 187, N-(2-(3-(Dimethylamino)propoxy)-5-(3′-methyl-2′-oxo-2′,3′-dihydrospiro[cyclobulane-1,1′-pyrrolo[2,3-c]quinolin]-8′-yl)pyridin-3-yl)-4-methoxypiperidine-1-sulfonamide]: the IC50 in assay [1] (ATP 20 μM) and in assay [2] (setting [4]) was 1 to 100 nM each time.
Regarding `CN(C)CCCOc1ncc(-c2ccc3ncc4c(c3c2)C2(COC2)C(=O)N4C)cc1NS(=O)(=O)c1ccccc1` [Example 32, N-(2-(3-(Dimethylamino)propoxy)-5-(3′-methyl-2′-oxo-2′,3′-dihydrospiro[oxetane-3,1′-pyrrolo[2,3-c]quinolin]-8′-yl)pyridin-3-yl)benzenesulfonamide], the IC50 in assay [1] (ATP 20 μM) and in assay [2] (setting [4]) was 1 to 100 nM each time.
Turning to `CC(C)NCCOc1ncc(-c2cc3c4c(cnc3cc2F)N(C)C(=O)C42CN(c3ccccc3)C2)cc1NS(C)(=O)=O` [Example 519, N-(5-(7′-Fluoro-3′-methyl-2′-oxo-1-phenyl-2′,3′-dihydrospiro[azetidine-3,1′-pyrrolo[2,3-c]quinolin]-8′-yl)-2-(2-(isopropylamino)ethoxy)pyridin-3-yl)methanesulfonamide hydrochloride], the IC50 in assay [1] (20 μM ATP) is under 0.5 nM; in assay [2] (setting [3]), 1 to 100 nM.
`COc1ccc(N2CC3(C2)C(=O)N(C)c2cnc4cc(F)c(-c5cnc(OCCNC(C)C)c(NS(C)(=O)=O)c5)cc4c23)cc1` [Example 533, N-(5-(7′-Fluoro-1-(4-methoxyphenyl)-3 methyl-2′-oxo-2′,3′-dihydrospiro [azetidine-3,1′-pyrrolo[2,3-c]quinolin]-8′-yl)-2-(2-(isopropylamino)ethoxy)pyridin-3-yl)methanesulfonamide]: the IC50 in assay [1] (20 μM ATP) and in assay [2] (setting [3]) was 1 to 100 nM each time.
For `CN1C(=O)C2(CCC2)c2c1cnc1ccc(-c3cnc(N4CCC(N(C)C)CC4)c(NS(C)(=O)=O)c3)cc21` [Example 224, N-(2-(4-(Dimethylamino)piperidin-1-yl)-5-(3′-methyl-2′-oxo-2′,3′-dihydrospiro[cyclobutane-1,1′-pyrrolo[2,3-c]quinolin]-8′-yl)pyridin-3-yl)methanesulfonamide], the IC50 in assay [1] (ATP 20 μM) was under 0.5 nM; in assay [2] (setting [4]), 1 to 100 nM.
Consider `CC(C)NCCOc1ncc(-c2cc3c4c(cnc3cc2F)N(C)C(=O)C42CN(c3ccc(-c4ccccc4)cc3)C2)cc1NS(C)(=O)=O` [Example 543, N-(5-(1-([1,1′-Biphenyl]-4-yl)-7′-fluoro-3′-methyl-2′-oxo-2′,3′-dihydrospiro[azetidine-3,1′-pyrrolo[2,3-c]quinolin]-8′-yl)-2-(2-(isopropylamino)ethoxy)pyridin-3-yl)methanesulfonamide], for which the IC50 in assay [1] (20 μM ATP) and in assay [2] (setting [3]) was 1 to 100 nM each time.
Consider `CO[C@H]1C[C@]2(C1)C(=O)N(C)c1cnc3cc(F)c(-c4cnc(OCCNC(C)C)c(NS(C)(=O)=O)c4)cc3c12` [Example 385, cis-N-(5-(7′-Fluoro-3-methoxy-3′-methyl-2′-oxo-2′,3′-dihydrospiro[cyclobutane-1,1′-pyrrolo[2,3-c]quinolin]-8′-yl)-2-(2-(isopropylamino)ethoxy)pyridin-3-yl)methanesulfonamide], for which the IC50 is under 0.5 nM in assay [1] (20 μM ATP) and 1 to 100 nM in assay [2] (setting [3]).
For the molecule `CCO[C@H]1C[C@]2(C1)C(=O)N(C)c1cnc3cc(F)c(-c4cnc(OCCNC(C)C)c(NS(C)(=O)=O)c4)cc3c12` [Example 393, cis-N-(5-(3-Ethoxy-7′-fluoro-3′-methyl-2′-oxo-2′,3′-dihydrospiro[cyclobutane-1,1′-pyrrolo[2,3-c]quinolin]-8′-yl)-2-(2-(isopropylamino)ethoxy)pyridin-3-yl) methanesulfonamide], the IC50 in assay [1] (20 μM ATP) and in assay [2] (setting [3]) was 1 to 100 nM throughout.
For `CN(C)CCCOc1ncc(-c2ccc3ncc4c(c3c2)C2(CCC2)C(=O)N4C)cc1NS(=O)(=O)c1ccc(F)cc1` [Example 158, N-(2-(3-(Dimethylamino)propoxy)-5-(3′-methyl-2-oxo-2′,3′-dihydrospiro[cyclobulane-1,1′-pyrrolo[2,3-c]quinolin]-8′-yl)pyridin-3-yl)-4-fluorobenzenesulfonamide hydrochloride], the IC50 in assay [1] (ATP 20 μM) and in assay [2] (setting [4]) was 0.5 to 1 nM in each case.
In the case of `CC(C)NCCOc1ncc(-c2cc3c(cc2F)ncc2c3[C@]3(C[C@@H](c4ccncc4)C3)C(=O)N2C)cc1NS(C)(=O)=O` [Example 439, trans-N-{5-(7′-Fluoro-3′-methyl-2′-oxo-3-(pyridin-4-yl)-2′,3′-dihydrospiro[cyclobutane-1,1′-pyrrolo[2,3-c]quinolin]-8′-yl)-2-(2-(isopropylamino)ethoxy)pyridin-3-yl)methanesulfonamide], the IC50 was 1 to 100 nM in assay [1] (20 μM ATP) and over 100 nM in assay [2] (setting [3]).
Turning to `CN1CCC(c2ncc(-c3ccc4ncc5c(c4c3)C3(CCC3)C(=O)N5C)cc2NS(C)(=O)=O)CC1` [Example 285, N-(5-(3′-Methyl-2′-oxo-2′,3′-dihydrospiro[cyclobutane-1,1′-pyrrolo[2,3-c]quinolin]-8′-yl)-2-(1-methylpiperidin-4-yl)pyridin-3-yl)methanesulfonamide], the IC50 in assay [1] (ATP 20 μM) and in assay [2] (setting [4]) was 1 to 100 nM each time.
`CN1C(=O)C2(CCC2)c2c1cnc1ccc(-c3cnc(OCCCN4CCC(F)CC4)c(NS(C)(=O)=O)c3)cc21` [Example 286, N-(2-(3-(4-Fluoropiperidin-1-yl)propoxy)-5-(3′-methyl-2′-oxo-2′,3′-dihydrospiro[cyclobutane-1,1′-pyrrolo[2,3-c]quinolin]-8′-yl)pyridin-3-yl)methanesulfonamide]: the IC50 is under 0.5 nM in assay [1] (ATP 20 μM) and 1 to 100 nM in assay [2] (setting [4]).
On to `COC[C@H]1C[C@]2(C1)C(=O)N(C)c1cnc3cc(F)c(-c4cnc(OCCNC(C)C)c(NS(C)(=O)=O)c4)cc3c12` [Example 404, cis-N-(5-(7′-Fluoro-3-(methoxymethyl)-3′-methyl-2′-oxo-2′,3′-dihydrospiro[cyclobutane-1,1′-pyrrolo[2,3-c]quinolin]-8′-yl)-2-(2-(isopropylamino)ethoxy)pyridin-3-yl)methanesulfonamide], for which the IC50 in assay [1] (20 μM ATP) lay in the range of 0.5 to 1 nM; in assay [2] (setting [3]), 1 to 100 nM.
For `CC(C)NCCOc1ncc(-c2cc3c4c(cnc3cc2F)N(C)C(=O)C42CN(c3ccc(F)cc3)C2)cc1NS(C)(=O)=O` [Example 538, N-(5-(7′-Fluoro-1-(4-fluorophenyl)-3′-methyl-2′-oxo-2′,3′-dihydrospiro [azetidine-3,1′-pyrrolo[2,3-c]quinolin]-8′-yl)-2-(2-(isopropylamino)ethoxy)pyridin-3-yl)methanesulfonamide hydrochloride] the same measures were 1 to 100 nM and 1 to 100 nM.
For `CC(C#N)c1cccc(S(=O)(=O)Nc2cc(-c3ccc4ncc5c(c4c3)C3(CC3)C(=O)N5C)cnc2OCCCN(C)C)c1` (stereo not shown) [Example 46, 3-(1-Cyanoethyl))-N-((2-(3-(Dimethylamino)propoxy)-5-(3′-methyl-2′-oxo-2′,3′-dihydrospiro [cyclopropane-1,1′-pyrrolo[2,3-c]quinolin]-8′-yl)pyridin-3-yl)benzenesulfonamide], the half-maximal inhibitory concentration (IC50) is under 0.5 nM in assay [1] (ATP 20 μM) and 1 to 100 nM in assay [2] (setting [4]).
For `CN1CCN(c2ncc(-c3ccc4ncc5c(c4c3)C3(CCC3)C(=O)N5C)cc2NS(=O)(=O)N(C)C)CC1` [Example 230, 8′-{5-[(Dimethylsulfamoyl)amino]-6-(4-methylpiperazin-1-yl)pyridin-3-yl}-3′-methyl-2′,3′-dihydrospiro[cyclobutane-1,1′-pyrrolo[2,3-c]quinoline]-2′-one] the same measures were under 0.5 nM and 1 to 100 nM.
